biological target: human ER beta (Homo sapiens, UniProt Q92731); experiment: ER beta FP binding assay (fluorescence polarisation, Fluormone EL Red ligand); conditions: 6 nM ERbeta protein, 1.5 nM ER FP ligand, 3 hours at room temperature; read-out: pIC50 in the ER beta FP binding assay (converted)
Experimental: Assay Buffer (AB) (50 mM MOPES pH 7.5, 50 mM NaF, 2.5 mM CHAPs), in deionized water, 5 mM 1,4 dithiothreitol (DTT) added on day of the experiment. The appropriate amount of AB was placed in a plastic tube, adding solid DTT before the assay was run. AB with DTT was distributed to plastic tubes. We have found use of plastic to be important vs glass. A final concentration of 6 nM ERbeta protein was added to the tube followed by gentle inversion. A final concentration of 1.5 nM ER FP ligand (Fluormone™ EL Red 200 nM in 20 mM Tris, 90% Methanol purchased from Invitrogen catalogue no P3030) was added to the same tube followed by gentle inversion. This was allowed to sit for 5-10 minutes before adding it to the 384 assay plate. Similar protocol was used for ERalpha with a final concentration of 4 nM ERalpha and 1.5 nM ER FP ligand.
384 plates containing test compounds dissolved in 100% DMSO at 1 mM were serially diluted (1:3) by a Beckman FX. Serial diluted test compounds were added, 0.1 μL, to the assay plates with a maximum final concentration of 10 uM. Once the assay plates were ready, 10 μL of the above reagents were added to the appropriate set of plates with the Thermo combi. These plates were then sealed and place at room temperature for 3 hours.
The plates were then placed on the Molecular Devices Analyst and counted (excitation 535 nm, emission 590 nm with a 561 Dichroic mirror). Data was normalized to control then fitted to a non-linear least squares algorithm (see below).
pIC50 Calculation y=a+((b−a)/(1+(10^x/10^c){circumflex over (0)}d)
The amino acid sequence of human ER beta used in this assay is […]

human ER beta, sequence (Q92731 with tags, fused parts or gaps): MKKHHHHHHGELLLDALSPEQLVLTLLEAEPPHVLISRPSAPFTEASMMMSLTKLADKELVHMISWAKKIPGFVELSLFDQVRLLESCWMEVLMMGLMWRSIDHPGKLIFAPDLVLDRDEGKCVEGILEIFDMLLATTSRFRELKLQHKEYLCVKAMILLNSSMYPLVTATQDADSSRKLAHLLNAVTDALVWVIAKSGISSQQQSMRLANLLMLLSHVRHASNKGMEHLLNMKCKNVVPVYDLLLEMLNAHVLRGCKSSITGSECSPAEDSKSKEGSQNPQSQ

IC50, < 10 nM:
Oc1ccc(-n2ccc3c(O)c(F)ccc32)cc1F [Example 5, 5-fluoro-1-(3-fluoro-4-hydroxyphenyl)-1H-indol-4-ol]
Oc1ccc(-n2ccc3c(O)cc(F)cc32)cc1 [Example 10, 6-fluoro-1-(4-hydroxyphenyl)-1H-indol-4-ol]
Oc1ccc(-n2ccc3c(O)ccc(Cl)c32)cc1F [Example 7, 7-Chloro-1-(3-fluoro-4-hydroxyphenyl)-1H-indol-4-ol]
N#Cc1cc(O)c2ccn(-c3ccc(O)c(F)c3)c2c1 [Example 8, 1-(3-Fluoro-4-hydroxyphenyl)-4-hydroxy-1H-indole-6-carbonitrile]
Oc1ccc(-n2ccc3c(O)c(F)cc(Br)c32)cc1F [Example 4, 7-bromo-5-fluoro-1-(3-fluoro-4-hydroxyphenyl)-1H-indol-4-ol]
Oc1ccc(-n2ccc3c(O)cc(F)cc32)cc1F [Example 9, 6-Fluoro-1-(3-fluoro-4-hydroxyphenyl)-1H-indol-4-ol]
